Source: PubChem BioAssay (NCI)
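Step 1: Grow cells in 96-well plates. Step 2: Expose to compound for 48 hours at 5 concentrations. Step 3: Interpolate endpoints linearly; if unreached, use highest concentration. TGI marks complete inhibition of growth.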

What was measured:
Experiment in all cases: inhibition of tumour cell growth, NCI panel, 48 h
EKVX NSCLC = system: EKVX NSCLC
K-562 leukemia = system: K-562 leukemia
KM12 colon = system: KM12 colon
MCF7 breast = system: MCF7 breast
PC-3 prostate = system: PC-3 prostate
RPMI-8226 leukemia = system: RPMI-8226 leukemia
SF-539 CNS = system: SF-539 CNS
SNB-19 CNS = system: SNB-19 CNS
U251 CNS = system: U251 CNS
UACC-257 melanoma = system: UACC-257 melanoma

SMILES | TGI (EKVX NSCLC) | TGI (K-562 leukemia) | TGI (KM12 colon) | TGI (MCF7 breast) | TGI (PC-3 prostate) | TGI (RPMI-8226 leukemia) | TGI (SF-539 CNS) | TGI (SNB-19 CNS) | TGI (U251 CNS) | TGI (UACC-257 melanoma)
CCN(CC)CCN(C(=Nc1ccccc1)N1CCOCC1)c1ccccc1 | > 100 µM | > 100 µM | > 100 µM | > 100 µM | > 100 µM | > 100 µM | > 100 µM | > 100 µM | > 100 µM | > 100 µM
Cc1cn(C2CC(O)C(CO)O2)c(=O)[nH]c1=O (configuration not stated) | 4950 µM | > 5000 µM | > 5000 µM | > 4300 µM | > 5000 µM | > 5000 µM | > 5000 µM | > 2850 µM | > 5000 µM | > 5000 µM
Cc1ccc(-c2[nH]c(=O)n(C3OC(CO)C(O)C(O)C3O)c(=O)c2C#N)cc1 (configuration not stated) | > 100 µM | > 100 µM | > 100 µM | > 100 µM | > 100 µM | > 100 µM | > 100 µM | > 100 µM | > 100 µM | > 100 µM
CC1CCC(C(=O)O)(C(Br)C(=O)O)CC1 (configuration not stated) | > 100 µM | > 100 µM | > 100 µM |  | > 100 µM | > 100 µM |  | > 100 µM | > 100 µM | > 100 µM
O=C(O)CCC(=O)OC1N=C(c2ccccc2Cl)c2cc([N+](=O)[O-])ccc2NC1=O (configuration not stated) | > 100 µM |  | > 100 µM | > 100 µM | > 100 µM |  |  | > 100 µM | > 100 µM | > 100 µM
CCCCCCOc1ccc(C(=O)NOC)cc1 | > 100 µM | > 100 µM | > 100 µM | > 100 µM | > 100 µM | > 100 µM | > 100 µM | > 100 µM | > 100 µM | > 100 µM
CS(=O)c1ncc2c(n1)-c1ccccc1OC2 (configuration not stated) | > 100 µM | > 100 µM | > 100 µM | > 100 µM | > 100 µM | > 100 µM | > 100 µM | > 100 µM | > 100 µM | > 100 µM
CC(=O)Nc1nc(C#N)[nH]c1C#N | > 100 µM | > 100 µM | > 100 µM | > 100 µM | > 100 µM | > 100 µM | > 100 µM | > 100 µM | > 100 µM | > 100 µM
N#CC12C(=O)N=C(N)C1(C#N)C(c1ccco1)NC1=C2CCCC1 (configuration not stated) | > 100 µM |  | > 100 µM | > 100 µM | > 100 µM | > 100 µM |  | > 100 µM | > 100 µM | > 100 µM
Cc1cccc2c1CC1(C2)Cc2c(C)cccc2C1=O (configuration not stated) | 72.8 µM | 70.3 µM | 51.5 µM | 94.7 µM | > 100 µM | 43 µM | 57.1 µM | > 100 µM | 65.4 µM | 63.5 µM
O=C(/C=C/c1ccc2c(c1)OCO2)CC(=O)C(=O)c1c[nH]c2ccccc12 | > 100 µM | 84.6 µM | > 100 µM | > 100 µM | > 100 µM | > 100 µM | > 100 µM | > 100 µM | > 100 µM | > 100 µM
CN(C)c1ccc(S(=O)Nc2ccccc2)cc1 (configuration not stated) | > 100 µM | > 100 µM | 57.1 µM | > 100 µM |  | > 100 µM | > 100 µM | > 100 µM | 62.9 µM | 92.9 µM
